From patent US10815247B2, “Functionalized NANOLUC inhibitors” (PROMEGA CORPORATION, priority 2016, dated 2020)
“Also recorded” adds a separate entry of the source.

Experiments:
[1] = molecular target: Nluc-HT-TMR (Nluc-HT conjugated to TMR chloroalkane) (Oplophorus gracilirostris, UniProt Q9GV45, A31E/A60N/A81I/F95D/I117V/K70R/L54V/L99Q/M102K/N193R/P142E/Q151K/Q38R/Q45L/V71I/Y165I); test: Inhibition of Nluc luciferase by JRW-0308 (FIG. 1); conditions: 0.05 nM protein in PBS/0.05% BSA, 2 hours at room temperature, furimazine 10 μM
Method: (§4) Samples were analyzed after addition of furimazine (10 μM final concentration) using a BMG Clariostar plate reader.

Nluc = Nluc (Oplophorus gracilirostris, UniProt Q9GV45, A31E/A60N/A81I/F95D/I117V/K70R/L54V/L99Q/M102K/N193R/P142E/Q151K/Q38R/Q45L/V71I/Y165I); test: Inhibition of Nluc luciferase by JRW-0308 (FIG. 1); conditions: 0.05 nM protein in PBS/0.05% BSA, 2 hours at room temperature, furimazine 10 μM
Method: as §4

[2] = tested on: Nluc-HT fusion protein in HeLa cells; test: Inhibition of Nluc luciferase in cells (FIG. 2A, 2B); type: cell-based; conditions: 2 hours at 37° C., furimazine 190 μM
Nluc in HeLa cells = Nluc in HeLa cells (Oplophorus gracilirostris, UniProt Q9GV45, A31E/A60N/A81I/F95D/I117V/K70R/L54V/L99Q/M102K/N193R/P142E/Q151K/Q38R/Q45L/V71I/Y165I); test: Inhibition of Nluc luciferase in cells (FIG. 2A); conditions: 2 hours at 37° C., furimazine 190 μM
Method: (§5) HeLa cells were reverse transfected with expression constructs for Nluc or Nluc-HT, plated (20,000 cells/100 μL growth medium) and incubated for 24 hours. […] HeLa cells were reverse transfected with expression constructs for Nluc or Nluc-HT, plated (20,000 cells/100 μL growth medium), and incubated for 24 hours.

[3] = molecular target: Nluc-HT-618 in HeLa cells (Oplophorus gracilirostris, UniProt Q9GV45, A31E/A60N/A81I/F95D/I117V/K70R/L54V/L99Q/M102K/N193R/P142E/Q151K/Q38R/Q45L/V71I/Y165I); test: Inhibition of Nluc luciferase in cells (FIG. 2B); conditions: HeLa cells pre-labelled with 500 nM NanoBRET 618 ligand, 2 hours at 37° C., furimazine 190 μM
Method: as §5

NanoLuc [4] = molecular target: T1, NanoLuc (Oplophorus gracilirostris, UniProt Q9GV45, A31E/A60N/A81I/F95D/I117V/K70R/L54V/L99Q/M102K/N193R/P142E/Q151K/Q38R/Q45L/V71I/Y165I); test: Inhibitor IC50 determination; type: biochemical
Method: The following example provides the IC50 values for the compounds disclosed herein. NANOLUC® enzyme was diluted to 0.4 ng/ml in CO2 independent media+10% FBS to make the detection reagent. A 3× dilution series of each inhibitor was then made in the detection reagent. A “no inhibitor” control was also made for each sample. 50 ul of each inhibitor dilution was mixed with 50 ul of NanoGlo® buffer containing 20 μM furimazine (final furimazine concentration is 10 μM, which is at Km.), and luminescence was measured. Each sample was normalized to the “no inhibitor” control. The IC50 values were then determined using GraphPad Prism (log[inhibitor] vs. normalized response).

Nluc-HT fusion protein = test: Inhibition of Nluc luciferase by JRW-0308 (FIG. 1); type: biochemical; conditions: 0.05 nM protein in PBS/0.05% BSA, 2 hours at room temperature, furimazine 10 μM
Cetux-Fab-Nluc = test: EGFR/Cetuximab binding assay with inhibitor and PBS wash (FIG. 9); type: biochemical; conditions: 1 μM inhibitor for 5 or 30 minutes, PBS wash 0, 10, 30, or 60 minutes, furimazine 10 μM
Method: Cetux-Fab-Nluc competes with Cetuximab for binding of EGFR. […] Following the first reading, 1 μM inhibitor is added for a period of 5 minutes or 30 minutes. The plates were subsequently washed with PBS for 0, 10, 30, or 60 minutes.

NanoLuc [5] = molecular target: T1, NanoLuc; conditions: inhibitor diluted to 3 uM, NanoLuc 0.4 ng/ml, 100 uM furimazine, read at two minute intervals
Method: Inhibitors were diluted to 3 uM into OptiMEM+0.1% FBS. NanoLuc was diluted to 0.4 ng/ml into NanoGlo® buffer+100 uM furimazine. 50 ul of each inhibitor was added to 50 ul of the NanoLuc/furimazine/NanoGlo® solution. Samples were immediately placed in a GloMax Multi+ set to read in kinetic mode at two minute intervals.
Inhibitors were diluted to 3 uM into OptiMEM+0.1% FBS. NanoLuc was diluted to 0.4 ng/ml into NanoGlo® buffer+100 uM furimazine. 50 ul of each inhibitor was added to 50 ul of the NanoLuc/furimazine/NanoGlo® solution. Samples were immediately placed in a GloMax® Multi+ set to read in kinetic mode at two minute intervals.

NanoLuc [6] = molecular target: T1, NanoLuc; test: Multiplexing luciferases with the same wavelength (FIG. 11); type: biochemical; conditions: 100 uM JRW-0552 solution in NanoGlo buffer, 0.4 ng/ml NanoLuc, kinetic read
Method: (§1) Three conditions are represented in this figure: 1) NanoLuc with JRW-0552; 2) NanoLuc and HiBiT with JRW-0552; and 3) NanoLuc and LgBiT with JRW-0552. At the 50 minute mark, an addition is done in each condition: 1) furimazine; 2) furimazine; and 3) LgBiT, furimazine, and HiBiT, respectively.
(§2) The following solutions were prepared in TBS+20 uM furimazine: 1) 0.4 ng/ml NanoLuc, 2) 0.4 ng/ml NanoLuc+0.2 nM HaloTag-HiBiT, 3) 0.4 ng/ml NanoLuc+200 nM LgBiT. 50 ul of each solution was combined in triplicate with a solution containing 100 uM JRW-0552 diluted into NanoGlo® buffer.
(§3) After 50 minutes, 100 ul of the following solutions were added to the corresponding samples: 1) NanoGlo® buffer+50 uM furimazine, 2) NanoGlo® buffer+50 uM furimazine+200 nM LgBiT, 3) NanoGlo® buffer+50 uM furimazine+0.2 nM HaloTag-HiBiT.

[7] = tested on: NanoBiT (LgBiT and HaloTag-HiBiT); test: as above; type: biochemical; conditions: 100 uM JRW-0552 solution; LgBiT 200 nM, HaloTag-HiBiT 0.2 nM added after 50 minutes
Method: as §1, §2, §3

NanoLuc [8] = molecular target: T1, NanoLuc; test: Suicide inhibition: displacement of inhibitor by furimazine upon dilution (FIG. 7); conditions: 10 μM Nluc + 10 μM inhibitor 30 minutes at RT, diluted to 10 pM, furimazine 10 uM
Method: Following dilution, 50 ul of the dilution was combined with 50 ul of NanoGlo® assay buffer.
Following dilution, 50 ul of the dilution was combined with 50 ul of NanoGlo® assay buffer. Final furimazine concentration was 10 uM.

T1 sequence (Q9GV45 28-196 with tags or gaps with the stated changes limits assumed): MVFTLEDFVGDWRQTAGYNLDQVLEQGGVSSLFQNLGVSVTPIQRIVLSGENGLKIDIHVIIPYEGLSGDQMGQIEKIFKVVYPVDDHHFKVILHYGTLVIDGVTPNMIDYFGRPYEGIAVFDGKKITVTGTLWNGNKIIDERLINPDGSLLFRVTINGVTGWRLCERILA
Sequence of Nluc-HT-618 in HeLa cells (Q9GV45 28-196 with tags or gaps with the stated changes limits assumed): as above
Sequence of Nluc-HT-TMR (Nluc-HT conjugated to TMR chloroalkane) (Q9GV45 28-196 with tags or gaps with the stated changes limits assumed): as above
Sequence of Nluc in HeLa cells (Q9GV45 28-196 with tags or gaps with the stated changes limits assumed): as above
Sequence of Nluc (Q9GV45 28-196 with tags or gaps with the stated changes limits assumed): as above

SMILES	inhibition of Nluc-HT-TMR [1]	inhibition of Nluc alone (Nluc)	inhibition of Nluc-HT fusion protein in cells [2]	inhibition of Nluc in cells (Nluc in HeLa cells)	inhibition of Nluc-HT-618 in cells [3]	IC50 (NanoLuc [4]) [nM]	inhibition of Nluc-HT fusion protein (Nluc-HT fusion protein)	reversibility of inhibition after PBS wash (Cetux-Fab-Nluc)	Nluc inhibition over time (kinetic light output) (NanoLuc [5])	inhibition of NanoLuc signal (NanoLuc [6])	activity of NanoBiT configurations in presence of inhibitor [7]	displacement of inhibitor by furimazine upon dilution (NanoLuc [8])	reversibility of Nluc inhibition (NanoLuc [8])
CCN(C(=O)Cn1c(C(=O)N[C@H]2CC[C@H](C(=O)NCCCCCCNC(=O)OCCOCCOCCOC(=O)NCCOCCOCCCCCCCl)CC2)cc2sccc21)c1cccc(C)c1 [JRW-0308]	higher concentrations are required	higher concentrations are required	potently inhibits	higher concentrations are required	higher concentrations of JRW-0308 are necessary	22	potently inhibits	–	–	–	–	–	–
CCN(C(=O)Cn1c(C(=O)N[C@H]2CC[C@H](C(=O)NCCCCCCCC(=O)ON3C(=O)CCC3=O)CC2)cc2sccc21)c1cccc(C)c1 [JRW-0552]	–	–	–	–	–	2.9	–	irreversible	time dependent inhibition	selectively inhibits	remain operational	not displaced	irreversible inhibition; also recorded: irreversibly inhibit
